Drawing on ChEMBL document CHEMBL1148627, “Design and synthesis of heterocyclic malonyl-CoA decarboxylase inhibitors” (Bioorg Med Chem Lett, 2006), this text covers IC50 for eight molecules.

Usually IC50 stands for the concentration that gives 50% inhibition.

The test has as its target T1, Malonyl-CoA decarboxylase, mitochondrial (Homo sapiens, UniProt O95822).
T1 sequence (O95822 whole entry): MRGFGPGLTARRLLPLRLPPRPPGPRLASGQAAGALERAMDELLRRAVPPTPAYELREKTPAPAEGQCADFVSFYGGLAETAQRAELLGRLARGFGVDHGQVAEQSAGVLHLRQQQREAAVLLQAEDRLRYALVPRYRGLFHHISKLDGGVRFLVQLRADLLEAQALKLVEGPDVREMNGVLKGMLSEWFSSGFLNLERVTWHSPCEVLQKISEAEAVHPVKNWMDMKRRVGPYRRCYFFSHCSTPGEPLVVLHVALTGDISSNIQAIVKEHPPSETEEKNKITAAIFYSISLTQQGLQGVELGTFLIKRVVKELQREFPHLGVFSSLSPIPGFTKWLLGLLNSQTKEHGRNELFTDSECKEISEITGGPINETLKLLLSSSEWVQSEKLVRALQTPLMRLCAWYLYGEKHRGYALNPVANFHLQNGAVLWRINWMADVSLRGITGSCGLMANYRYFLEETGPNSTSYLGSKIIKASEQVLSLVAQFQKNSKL
Nature of the test: Inhibitory activity against recombinant human MCD MBP fusion protein.

As to `CC(C)c1nc(C(F)(F)F)cn1-c1ccc(C(O)(C(F)(F)F)C(F)(F)F)cc1`, the IC50 came to 0.567 µM.
With `CCCCNCc1cnc(C(C)C)n1-c1ccc(C(O)(C(F)(F)F)C(F)(F)F)cc1` the figure was 0.482 µM.
With `CCC(C)c1ncc(CO)n1-c1ccc(C(O)(C(F)(F)F)C(F)(F)F)cc1` (stereo not drawn) the figure was 0.321 µM; with `CC(C)c1nc(CO)cn1-c1ccc(C(O)(C(F)(F)F)C(F)(F)F)cc1`, 0.243 µM; with `OCc1cnc(-c2ccccn2)n1-c1ccc(C(O)(C(F)(F)F)C(F)(F)F)cc1`, 0.791 µM.
Regarding `CCC(C)c1ncc(CNC(C)C)n1-c1ccc(C(O)(C(F)(F)F)C(F)(F)F)cc1` (stereo not drawn), the IC50 was 0.341 µM.
In the case of `CC(C)NC(=O)CCC1CN(Cc2cnc(C(C)C)n2-c2ccc(C(O)(C(F)(F)F)C(F)(F)F)cc2)CCO1` (stereo not drawn) it was 1.08 µM.
In the case of `CCC(C)c1ncc(/C=C/C(=O)O)n1-c1ccc(C(O)(C(F)(F)F)C(F)(F)F)cc1` (stereo not drawn) it was 0.523 µM.
